Experimental data reported in patent publication US20260007651A1, “Effect of YEL002 on Conditions and Diseases” (RadMit, Inc., priority 2022, published 2026).

System: lymphoma
Experiment: Lymphoma incidence in mice (National Institute of Health experiment)
Format: in vivo
Conditions: reduced from 10-20%
Procedure: This was observed after treating mice right after birth, if humans are treated later in life it is possible that only 10 or 5 years are added and probably more for DNA repair deficient diseases like ataxia telangiectasia (ATM) which is still very substantial.

In the case of `COc1ccc2cc(-c3nc4ccc(C)cn4c3NCc3ccco3)c(=O)[nH]c2c1` [YEL002], the “spontaneous frequency of lymphoma” value is reported as 0%.
